Measured values published in patent US9199918B2, “Small molecule inhibitors of AGBL2” (Georgetown University, priority 2011, dated 2015).

T1: AGBL2 (Homo sapiens, UniProt Q5U5Z8)
T1 construct: His (N); made in house; protein recovered from inclusion bodies
T1 sequence (Q5U5Z8 1-902): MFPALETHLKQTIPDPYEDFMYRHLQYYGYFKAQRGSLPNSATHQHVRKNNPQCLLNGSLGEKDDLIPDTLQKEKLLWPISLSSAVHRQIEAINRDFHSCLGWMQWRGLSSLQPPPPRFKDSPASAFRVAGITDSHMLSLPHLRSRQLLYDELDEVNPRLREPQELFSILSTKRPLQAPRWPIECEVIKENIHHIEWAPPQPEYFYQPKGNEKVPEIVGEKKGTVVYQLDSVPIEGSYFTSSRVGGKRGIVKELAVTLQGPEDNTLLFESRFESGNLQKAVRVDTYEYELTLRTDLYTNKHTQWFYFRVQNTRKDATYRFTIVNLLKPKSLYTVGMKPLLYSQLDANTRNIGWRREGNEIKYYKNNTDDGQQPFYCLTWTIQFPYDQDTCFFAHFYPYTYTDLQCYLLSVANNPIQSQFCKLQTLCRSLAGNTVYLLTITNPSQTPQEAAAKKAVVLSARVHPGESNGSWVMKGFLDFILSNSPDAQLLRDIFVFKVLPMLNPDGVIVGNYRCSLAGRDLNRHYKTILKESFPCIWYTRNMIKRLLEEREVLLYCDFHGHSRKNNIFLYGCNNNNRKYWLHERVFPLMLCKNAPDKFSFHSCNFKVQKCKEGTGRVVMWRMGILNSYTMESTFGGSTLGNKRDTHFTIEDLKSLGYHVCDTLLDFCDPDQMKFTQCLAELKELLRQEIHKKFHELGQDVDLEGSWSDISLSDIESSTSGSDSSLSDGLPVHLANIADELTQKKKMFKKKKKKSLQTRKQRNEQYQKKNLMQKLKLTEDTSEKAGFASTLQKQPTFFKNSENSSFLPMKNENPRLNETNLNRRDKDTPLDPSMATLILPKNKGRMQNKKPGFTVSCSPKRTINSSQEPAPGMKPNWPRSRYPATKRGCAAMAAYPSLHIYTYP


Legend:
AGBL2 [1] = molecular target: T1, AGBL2; experiment: Enzyme inhibition kinetic assay (fluorometric, release of tyrosine from hydroxycoumarin-conjugated tubulin CTT substrate); format: biochemical; settings: 1 nM recombinant AGBL2; substrate 1 μM; 25° C., pH 7.5; apparent Ki fitted to Morrison equation for tight-binding inhibitors
Excerpt: Fluorescence Resonance Energy Transfer (FRET) principle can be applied to generate real-time enzymatic activity data. The tyrosinated C-terminal tail of tubulin has a tyrosine at the C-terminal. Tyrosines absorb at 270 nm and emit in the 280 to 350 nm range with a λMax=303 nm. Adding a hydroxycoumarin that absorbs in the range of 300 to 350 nm to the N-terminal of the CTT of tubulin (see FIG. 5) allows the quenching of the tyrosine emission that can be monitored at 303 nm. Emissions at 303 nm can be detected after the cleavage of the tyrosine residue since the latter will follow a Brownian motion and become physical situated far from the quencher (Hydroxycoumarin). Assays can be performed at 25° C. in 10 mM CaCl2, 0.2 M NaCl, and 0.05% Brij-35 in 50 mM HEPES, pH 7.5, over a substrate concentration range of […] and an enzyme concentration range of 0.1-50 nM. An exemplary assay was performed by incubating 186 μL of buffer solution, 4 μL of substrate solution, and then adding 10 μL of AGBL2 solution. The mixture was then incubated for 15 to 120 minutes at 25° C.
Kinetic assays of the inhibition of AGBL2 were carried out using the substrate described in Example 4 to measure inhibition constants. Enzymatic assays were performed at 25° C. in 50 mM HEPES buffer at pH 7.5 in the presence of 10 mM CaCl2, 0.2 M NaCl, and 0.01% or 0.05% Brij-35 with substrate concentrations of 1 μM. The release of tyrosine was monitored by measuring fluorescence (excitation and emission wavelengths of 270 nm and 303 nm, respectively). The compounds tested as inhibitors included compound Sd-1, compound Sd-2, compound Sd-3, and compound Sd-4. All stock solutions of inhibitors were in methanol. For inhibition assays, 10 μL of inhibitor stock solution, 176 μL of assay buffer, and 10 μL of enzyme stock solution were mixed and incubated for 30 to 60 minutes prior to initiation of the assay, which was accomplished by adding and mixing 4 μL of substrate stock solution. Enzyme concentrations ranged from 0.2 to 7 nM during the assay. Apparent inhibition constant (Ki^app) values were calculated by fitting the kinetics data to the Morrison equation for tight-binding inhibitors, where vi and vo are the initial rates with and without inhibitor, respectively, and [E]o and [I]o are the initial (total) enzyme and inhibitor concentrations, respectively. The Ki values of the four tested compounds and of recombinant RARRES1, all including 1 nM of recombinant AGBL2) are shown in Table 1.

AGBL2 [2] = molecular target: T1, AGBL2; experiment: High throughput enzyme kinetic (FRET) assay, saturation curves in the presence of inhibitor; format: biochemical; settings: AGBL2 1 nM; Sd-4 at 1 nM, 5 nM and 10 nM; substrate 0 to 3 μM
Excerpt: Fluorescence Resonance Energy Transfer (FRET) principle can be applied to generate real-time enzymatic activity data. The tyrosinated C-terminal tail of tubulin has a tyrosine at the C-terminal. Tyrosines absorb at 270 nm and emit in the 280 to 350 nm range with a λMax=303 nm. Adding a hydroxycoumarin that absorbs in the range of 300 to 350 nm to the N-terminal of the CTT of tubulin (see FIG. 5) allows the quenching of the tyrosine emission that can be monitored at 303 nm. Emissions at 303 nm can be detected after the cleavage of the tyrosine residue since the latter will follow a Brownian motion and become physical situated far from the quencher (Hydroxycoumarin). […]
The reaction rate can be analyzed using different substrate concentrations and the saturation curve can be drawn. The maximum reaction rate (Vmax) and the substrate concentration at half the Vmax referred to as the Michaelis-Menten constant (KM) can be determined from the saturation curve. Inhibitors can also be analyzed and a saturation curve in the presence of inhibitor can be drawn. The reaction rate was analyzed using substrate concentrations over a range of 0 to 3 μM. […] The dissociation constant of the inhibitor (Ki) can be calculated using the following equation: Ki=[Inhibitor]/((KM,obs/KM)−1.0).

Molecule	Ki (AGBL2 [1])	inhibition of AGBL2 activity at varying substrate concentrations (FIG. 6) (AGBL2 [2])
Cc1cc(F)cnc1CC(=O)O [Sd-1]	173 nM	
RARRES1: recombinant N-His RARRES1 protein (MW ~31 kDa) obtained from inclusion bodies (protein, UniProt P49788 1-294, looked up, N-terminal His tag, recombinant N-His RARRES1 protein (MW ~31 kDa) obtained from inclusion bodies) Retinoic acid receptor …: MQPRRQRLPAPWSGPRGPRPTAPLLALLLLLAPVAAPAGSGDPDDPGQPQDAGVPRRLLQQAARAALHFFNFRSGSPSALRVLAEVQEGRAWINPKEGCKVHVVFSTERYNPESLLQEGEGRLGKCSARVFFKNQKPRPTINVTCTRLIEKKKRQQEDYLLYKQMKQLKNPLEIVSIPDNHGHIDPSLRLIWDLAFLGSSYVMWEMTTQVSHYYLAQLTSVRQWKTNDDTIDFDYTVLLHELSTQEIIPCRIHLVWYPGKPLKVKYHCQELQTPEEASGTEEGSAVVPTELSNF	27 nM	

Other lines, results leading:

Ki (AGBL2 [1])	inhibition of AGBL2 activity at varying substrate concentrations (FIG. 6) (AGBL2 [2])	Molecule
428 nM		CC(C)c1ccc(Sc2ccc(F)cc2CC(=O)O)cc1 [Sd-3]
4.89 nM	inhibition of AGBL2 activity	O=C(O)Cc1cccc(C(=O)Nc2ccc3c(c2)OCO3)c1 [Sd-4]
87 nM		Cc1cc(C(F)(F)F)cnc1CC(=O)O [Sd-2]
